In ChEMBL document CHEMBL1777753, “Discovery of indeno[1,2-c]quinoline derivatives as inhibitors of osteoclastogenesis induced by receptor activator of NF-κB ligand (RANKL)” (J Med Chem, 2011):
Activity calls are given as the source filed them. No cut-off for these calls is given here.

How the values were obtained:
[1] = test system: RAW264.7; assay: Inhibition of RANKL-induced osteoclastogenesis in mouse RAW264.7 cells assessed as decrease in TRAP-positive multi-nucleated cells after 5 days; format: functional, cell-based; conditions: RAW264.7, 120 h
[2] = Cytotoxicity against mouse RAW264.7 cells assessed as cell survival rate at 10 uM by MTT assay; format: cell-based; conditions: read-out: Survival
[3] = test system: RAW264.7; assay: Inhibition of RANKL-induced osteoclastogenesis in mouse RAW264.7 cells; format: functional, cell-based
[4] = test system: RAW264.7; assay: Inhibition of RANKL-induced osteoclastogenesis in mouse RAW264.7 cells assessed as decrease in TRAP-positive multi-nucleated cells at 10 uM after 5 days; format: functional
[5] = test system: RAW264.7; assay: Ratio of EGCG IC50 for compound IC50 for inhibition of RANKL-induced osteoclastogenesis in mouse RAW264.7 cells; format: functional
[6] = Growth inhibition against human BT-483 cells; format: functional
[7] = test system: SAS; assay: Growth inhibition against human SAS cells; format: functional
[8] = test system: A549; assay: Growth inhibition against human A549 cells; format: functional

Row | Structure (SMILES) | IC50 [1] | viability at 10 µM [2] | other results
1 | COc1ccc2c(c1)C(=O)c1c-2c(S)nc2ccccc12 | 13.8 µM | 63% | –
2 | C=CCOc1ccc2c(c1)C(=O)c1c-2c(=O)n(CC=C)c2ccccc12 | > 20 µM | – | –
3 | CO/N=C1\c2cc(OC)ccc2-c2c(OC)nc3ccccc3c21 | 7.97 µM | 62.3% | –
4 | COc1ccc2c(c1)/C(=N\O)c1c-2c(OC)nc2ccccc12 | 8.44 µM | 46.9% | –
5 | COc1ccc2c(c1)C(=O)c1c-2c(N)nc2ccccc12 | > 20 µM | – | –
6 | Cc1ccc(-n2c(=O)n3n(c2=O)C2C(=CC3)C(C)(C)Oc3cc(O)ccc32)cc1 (configuration not stated) | – | – | IC50 [3]: 6.97 µM
7 | CO/N=C1\c2cc(OC)ccc2-c2c(NOC)nc3ccccc3c21 | 1.58 µM | 105% | inhibition [4]: Active
8 | CO/N=C1\c2cc(OC)ccc2-c2cnc3ccccc3c21 | 4.79 µM | 55.4% | –
9 | COc1ccc2c(c1)C(=O)c1c-2c(OC)nc2ccccc12 | 2 µM | 100% | inhibition [4]: Active; Ratio IC50 [5]: 15
10 | COc1ccc2c(c1)C(=O)c1c-2c(=O)n(C)c2ccccc12 | 11.5 µM | 66.6% | –
11 | C#CCOc1ccc2c(c1)C(=O)c1c-2c(=O)n(CC#C)c2ccccc12 | > 20 µM | – | –
12 | O=C1c2cc(O)ccc2-c2c(O)nc3ccccc3c21 | 15.3 µM | 16.8% | –
13 | O=C(O[C@@H]1Cc2c(O)cc(O)cc2O[C@@H]1c1cc(O)c(O)c(O)c1)c1cc(O)c(O)c(O)c1 [EPIGALOCATECHIN GALLATE] | 29.8 µM | – | –
14 | COc1ccc2c(c1)/C(=N\O)c1c-2cnc2ccccc12 | > 20 µM | – | –
15 | CNc1nc2ccccc2c2c1-c1ccc(OC)cc1C2=O | 5.58 µM | 25.9% | –
16 | CCOc1nc2ccccc2c2c1-c1ccc(OC)cc1C2=O | > 20 µM | – | –
17 | C=CCOc1nc2ccccc2c2c1-c1ccc(OC)cc1C2=O | 15.4 µM | 105% | –
18 | C=CCSc1nc2ccccc2c2c1-c1ccc(OC)cc1C2=O | 15.6 µM | 106% | –
19 | C#CCOc1ccc2c(c1)C(=O)c1c-2c(OCC#C)nc2ccccc12 | 9.46 µM | 30.9% | –
20 | CC(C)Oc1ccc2c(=O)c(-c3ccccc3)coc2c1 [IPRIFLAVONE] | – | 102% | inhibition at 10 µM ([4]; RAW264.7, 120 h): 31%
21 | C=CCn1c(=O)c2c(c3ccccc31)C(=O)c1cc(OC)ccc1-2 | > 20 µM | – | –
22 | COc1ccc2c(c1)C(=O)c1c-2c(O)nc2ccccc12 | > 20 µM | – | –
23 | COc1ccc2c(c1)/C(=N\OCCN1CCCC1)c1c-2c(O)nc2ccccc12 | – | – | GI50 [6]: 0.79 µM; GI50 [7]: 0.84 µM; GI50 [8]: 0.89 µM
24 | COc1ccc2c(c1)/C(=N\O)c1c-2c(O)nc2ccccc12 | 9.11 µM | 85.2% | –
25 | COc1ccc2c(c1)C(=O)c1c-2c(SC)nc2ccccc12 | 2.58 µM | 86.6% | inhibition [4]: Active
26 | C=CCOc1ccc2c(c1)C(=O)c1c-2c(OCC=C)nc2ccccc12 | 5.7 µM | 75.1% | inhibition [4]: Active
27 | COc1ccc2c(c1)C(=O)c1c-2cnc2ccccc12 | 1.43 µM | 25.3% | Ratio IC50 [5]: 20
